Test results published in publication PMC4122817, “Target Engagement Analysis and Link to Pharmacodynamic Endpoint for a Novel Class of CNS-penetrant and Efficacious p38α MAPK Inhibitors” (Journal of Neuroimmune Pharmacology, 2014).

Target: T1, p38α MAPK (Mus musculus, UniProt P47811)
T1 construct: gene Mapk14; endogenous p38α MAPK in the murine microglial BV-2 cell line
Assay: western blot of phosphorylated substrate MK2 in LPS-stimulated BV2 cells (pMSK1 IC50 […]); in vivo effect lost in p38α T106M knock-in mice
Format: cell-based

T1 sequence (P47811 2-360): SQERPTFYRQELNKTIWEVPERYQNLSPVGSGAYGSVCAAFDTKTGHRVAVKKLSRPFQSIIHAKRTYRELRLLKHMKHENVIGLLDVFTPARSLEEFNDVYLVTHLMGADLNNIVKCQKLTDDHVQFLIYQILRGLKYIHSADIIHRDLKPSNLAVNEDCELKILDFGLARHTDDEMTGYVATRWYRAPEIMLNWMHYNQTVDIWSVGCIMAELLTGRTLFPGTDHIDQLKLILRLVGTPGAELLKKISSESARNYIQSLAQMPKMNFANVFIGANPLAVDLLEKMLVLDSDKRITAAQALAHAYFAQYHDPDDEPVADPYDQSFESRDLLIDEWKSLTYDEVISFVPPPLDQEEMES

Q: Which IC50 does the source give for MW181 here?
A: Its IC50 is 1.2 µM.
